Target: T1, β-secretase(BACE) (Homo sapiens, UniProt P56817)
T1 construct: purchased Panvera
Assay: BACE FS1% Inhibition Assay
Assay type: biochemical
Settings: FS1 substrate; for % Inhibition (FS) 10 μM: 10 μM test compound; for inhibition at 0.3 µM / inhibition at 1 µM / inhibition at 3 µM: read-out: % Inhibition (FS)
How it was run: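 Percent inhibition at each tested concentration, referenced to enzyme-free blank and vehicle-only positive control. Reaction: compound and BACE (4 μg/mL working stock) mixed 20 min at room temperature before FS1 substrate (300 μg/mL working stock), then 1 h at room temperature.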

T1 sequence (P56817 46-501): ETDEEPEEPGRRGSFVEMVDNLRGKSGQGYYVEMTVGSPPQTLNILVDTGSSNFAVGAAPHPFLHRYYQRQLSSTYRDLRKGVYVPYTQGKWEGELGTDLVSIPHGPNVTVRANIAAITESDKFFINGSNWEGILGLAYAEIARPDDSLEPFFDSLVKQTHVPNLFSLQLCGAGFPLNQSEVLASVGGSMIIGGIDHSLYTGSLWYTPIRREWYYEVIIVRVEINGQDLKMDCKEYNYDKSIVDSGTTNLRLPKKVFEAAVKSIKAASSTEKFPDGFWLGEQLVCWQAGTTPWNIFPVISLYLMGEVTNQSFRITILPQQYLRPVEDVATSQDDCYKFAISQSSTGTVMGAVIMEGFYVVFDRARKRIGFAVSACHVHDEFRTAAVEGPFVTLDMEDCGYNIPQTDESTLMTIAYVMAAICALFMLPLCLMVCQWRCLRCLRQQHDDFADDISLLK

| % Inhibition (FS) 0.3 μM (0.3 μM test compound) [%] | % Inhibition (FS) 1 μM (1 μM test compound) [%] | % Inhibition (FS) 3 μM (3 μM test compound) [%] | Structure (SMILES) | further results |
| --- | --- | --- | --- | --- |
| – | – | – | NC1=Nc2ccc(-c3ccc4ccccc4c3)cc2CN1CCNC(=O)C12CC3CC(CC(C3)C1)C2 [Compound 665] | % Inhibition (FS) (0.3 μM test compound): 35%; % Inhibition (FS) (1 μM test compound): <30%; % Inhibition (FS) (3 μM test compound): <30% |
| 67 | 105 | 111 | CC(C)(C)OC(=O)NCC(C1CCCCC1)N1Cc2cc(Oc3ccccc3)ccc2N=C1N (stereo not shown) [Compound 257] | – |
| <30 | <30 | 31 | COc1ccccc1Oc1ccc2c(c1)CN(Cc1cccc(C(=O)N(C)C3CCCCC3)c1)C(N)=N2 [Compound 232] | – |
| – | – | – | NC1=Nc2ccc(C3=CCCC3)cc2CN1CCNC(=O)C1CCC(C(F)(F)F)CC1 (stereo not shown) [Compound 707] | % Inhibition (FS) (0.3 μM test compound): <30%; % Inhibition (FS) (1 μM test compound): <30%; % Inhibition (FS) (3 μM test compound): <30% |
| <30 | <30 | 53 | CN(C(=O)CCC(c1ccc(-c2ccccc2)cc1)N1Cc2cc(Oc3ccccc3)ccc2N=C1N)C1CCCCC1 (stereo not shown) [Compound 420] | – |
| <30 | <30 | <30 | Cc1cc(C(=O)NCCN2Cc3cc(-c4cccc(CO)c4)ccc3N=C2N)c(C)o1 [Compound 589] | – |
| <30 | 42 | 38 | CCCCCC1CC2(C(=O)NCCN3Cc4cc(Oc5ccccc5)ccc4N=C3N)CCC1CC2 (stereo not shown) [Compound 194] | – |
| <30 | 35 | 79 | CN(C(=O)c1cccc(CN2Cc3cc(-c4ccccc4Oc4ccccc4)ccc3N=C2N)c1)C1CCCCC1 [Compound 326] | – |
| <30 | 30 | 71 | CN(C(=O)c1cccc(CN2Cc3cc([S+]([O-])c4ccccc4)ccc3N=C2N)c1)C1CCCCC1 (stereo not shown) [Compound 549] | – |
| – | – | – | CCCC(=O)NCCN1Cc2cc(-c3ccc4ccccc4c3)ccc2N=C1N [Compound 666] | % Inhibition (FS) (0.3 μM test compound): 37%; % Inhibition (FS) (1 μM test compound): <30%; % Inhibition (FS) (3 μM test compound): <30% |
| <30 | <30 | <30 | CN(C(=O)c1cccc(CN2Cc3cc(-c4ccncc4)ccc3N=C2N)c1)C1CCCCC1 [Compound 168] | – |
| – | – | 97 | CCCC(CCC(=O)NC1CCCCCC1)N1Cc2cc(Oc3ccccc3)ccc2N=C1N (stereo not shown) [Compound 128] | % Inhibition (FS) 10 μM: 108% |
| – | – | – | CC(C)N1CCC(N(C)C(=O)CC[C@@H](C2CCCCC2)N2Cc3cc(Oc4ccccc4)ccc3N=C2N)CC1 [Compound 728] | % Inhibition (FS) (0.3 μM test compound): 43%; % Inhibition (FS) (1 μM test compound): 58%; % Inhibition (FS) (3 μM test compound): 97% |
| <30 | <30 | 73 | NC1=Nc2ccc(Oc3ccccc3)cc2CN1CC(NC(=O)C1CCCCC1)C1CCCCC1 (stereo not shown) [Compound 637] | – |
| <30 | <30 | <30 | CCCC=Cc1ccc2c(c1)CN(CCNC(=O)CC1CCCC1)C(N)=N2 [Compound 580] | – |
| <30 | 34 | 67 | NC1=Nc2ccc(Oc3ccccc3)cc2CN1Cc1cccc(C(=O)N2CCC3CCCCC3C2)c1 (stereo not shown) [Compound 193] | – |
| <30 | <30 | 37 | CN(C(=O)c1cccc(CN2Cc3cc(-c4ccc5[nH]ccc5c4)ccc3N=C2N)c1)C1CCCCC1 [Compound 175] | – |
| – | – | – | CN(C(=O)CC[C@@H](C1CCCCC1)N1Cc2ccc(Oc3ccccc3)cc2N=C1N)C1CCCCC1 [Compound 754] | % Inhibition (FS) (0.3 μM test compound): 8%; % Inhibition (FS) (1 μM test compound): 35%; % Inhibition (FS) (3 μM test compound): 89% |
| <30 | <30 | 37 | COc1ccccc1-c1cc2c(cc1F)CN(CCC(=O)NC1C3CC4CC(C3)CC1C4)C(N)=N2 (stereo not shown) [Compound 620] | – |
| – | – | – | CC(=O)N1CCC(C(=O)NCCN2Cc3cc(-c4ccccc4C)ccc3N=C2N)CC1 [Compound 695] | % Inhibition (FS) (0.3 μM test compound): <30%; % Inhibition (FS) (1 μM test compound): <30%; % Inhibition (FS) (3 μM test compound): 54% |
| <30 | 35 | 72 | CCOc1cccc(Nc2ccc3c(c2)CN(Cc2cccc(C(=O)N(C)C4CCCCC4)c2)C(N)=N3)c1 [Compound 440] | – |
| <30 | <30 | <30 | NC1=Nc2ccc(-c3ccncc3)cc2CN1CCNC(=O)C1CCCCC1 [Compound 576] | – |
| <30 | <30 | <30 | NC1=Nc2ccc(Oc3ccccc3)cc2CN1C(CC(=O)NC1CCCCC1)c1ccccc1 (stereo not shown) [Compound 299] | – |

| % Inhibition (FS) 0.3 μM (0.3 μM test compound) [%] | % Inhibition (FS) 1 μM (1 μM test compound) [%] | % Inhibition (FS) 3 μM (3 μM test compound) [%] | Structure (SMILES) | further results |
| --- | --- | --- | --- | --- |
| 74 | 92 | 110 | NC1=Nc2ccc(-c3ccccc3F)cc2CN1CCNC(=O)C1CCCC1 [Compound 643] | – |
| – | – | – | COc1ccccc1-c1ccc2c(c1)CN([C@@H](CCC(=O)N(C)Cc1cc(C)no1)C1CCCCC1)C(N)=N2 [Compound 718] | % Inhibition (FS) (0.3 μM test compound): <30%; % Inhibition (FS) (1 μM test compound): 30%; % Inhibition (FS) (3 μM test compound): 114% |
| – | – | <30 | NC1=Nc2ccc(Oc3ccccc3)cc2CN1C1c2ccccc2-c2c(C(=O)N(C3CCCCC3)C3CCCCC3)cccc21 (stereo not shown) [Compound 147] | % Inhibition (FS) 10 μM: 71% |
| <30 | 33 | <30 | CN(C(=O)c1cccc(CN2Cc3cc(-c4cccc(C(=O)O)c4)ccc3N=C2N)c1)C1CCCCC1 [Compound 163] | – |
| <30 | <30 | 95 | CSc1ccccc1-c1ccc2c(c1)CN(Cc1cccc(C(=O)N(C)C3CCCCC3)c1)C(N)=N2 [Compound 322] | – |
| <30 | <30 | <30 | CN(C(=O)c1cccc(CN2Cc3cc(-c4ccc(C(N)=O)cc4)ccc3N=C2N)c1)C1CCCCC1 [Compound 162] | – |
| <30 | <30 | <30 | CCCC=Cc1ccc2c(c1)CN(CCNC(=O)c1cc(C)oc1C)C(N)=N2 [Compound 587] | – |
| – | – | – | COc1ccccc1-c1ccc2c(c1)CN([C@@H](CCC(=O)N(C)Cc1csc(-c3ccccc3)n1)C1CCCCC1)C(N)=N2 [Compound 716] | % Inhibition (FS) (0.3 μM test compound): <30%; % Inhibition (FS) (1 μM test compound): <30%; % Inhibition (FS) (3 μM test compound): 72% |
| <30 | <30 | 32 | C=CCc1cccc(OC)c1Oc1ccc2c(c1)CN(Cc1cccc(C(=O)N(C)C3CCCCC3)c1)C(N)=N2 [Compound 481] | – |
| <30 | <30 | 63 | CN(C(=O)c1cccc(CN2Cc3cc(Sc4ccc5ccccc5c4)ccc3N=C2N)c1)C1CCCCC1 [Compound 415] | – |
| <30 | <30 | <30 | CCCC=Cc1ccc2c(c1)CN(CCNC(=O)c1ccc(NC(C)=O)cc1)C(N)=N2 [Compound 592] | – |
| 74 | 103 | 115 | NC1=Nc2ccc(Oc3ccccc3)cc2CN1C(CNC(=O)C12CC3CC(CC(C3)C1)C2)C1CCCCC1 (stereo not shown) [Compound 312] | – |
| <30 | <30 | 77 | NC1=Nc2ccc(Oc3ccccc3)cc2CN1C(CC(=O)NC1CCCCC1)C1CCCCC1 (stereo not shown) [Compound 300] | – |
| 34 | 65 | 95 | NC1=Nc2ccc(-c3ccccc3Cl)cc2CN1CCNC(=O)C1CCC1 [Compound 649] | – |
| – | – | – | CCCCC(CC)C(=O)NCCN1Cc2cc(-c3ccc4ccccc4c3)ccc2N=C1N (stereo not shown) [Compound 669] | % Inhibition (FS) (0.3 μM test compound): <30%; % Inhibition (FS) (1 μM test compound): <30%; % Inhibition (FS) (3 μM test compound): 32% |
| – | – | – | COc1cccc(CCNC(=O)CCC(C2CCCCC2)N2Cc3cc(F)ccc3N=C2N)c1 (stereo not shown) [Compound 810] | inhibition at 0.3 µM (0.3 μM test compound): < 30%; inhibition at 1 µM (1 μM test compound): < 30%; inhibition at 3 µM (3 μM test compound): < 30% |
| <30 | <30 | <30 | CN(C)c1ccc(C(=O)NCCN2Cc3cc(Oc4ccccc4)ccc3N=C2N)cc1 [Compound 189] | – |
| <30 | <30 | <30 | CCCCCCCCC(CCC(=O)N(C)C1CCCCC1)N1Cc2cc(Oc3ccccc3)ccc2N=C1N (stereo not shown) [Compound 210] | – |
| <30 | <30 | <30 | CN(C(=O)c1cccc(CN2Cc3cc(Oc4ccccc4S(C)(=O)=O)ccc3N=C2N)c1)C1CCCCC1 [Compound 472] | – |
| <30 | <30 | 49 | COc1ccccc1-c1ccc2c(c1)CN(CCNC(=O)CCN)C(N)=N2 [Compound 493] | – |
| – | – | – | CC(C)(C)C(=O)NCCN1Cc2cc(-c3ccc4ccccc4c3)ccc2N=C1N [Compound 667] | % Inhibition (FS) (0.3 μM test compound): 33%; % Inhibition (FS) (1 μM test compound): <30%; % Inhibition (FS) (3 μM test compound): <30% |
| – | – | – | NC1=Nc2ccc(Br)cc2CN1CCNC(=O)C1CCCCC1 [Compound 806] | inhibition at 0.3 µM (0.3 μM test compound): < 30%; inhibition at 1 µM (1 μM test compound): < 30%; inhibition at 3 µM (3 μM test compound): < 30% |
| <30 | <30 | 48 | CN(C(=O)c1cccc(CN2Cc3cc(-c4ccccc4OCc4ccccc4)ccc3N=C2N)c1)C1CCCCC1 [Compound 327] | – |
